Measurements reported in patent publication US9067920B2, “Compounds useful for inhibiting Chk1” (Eli Lilly and Company, priority 2010, dated 2015).
Structures can show the parent of a compound that is named as a salt.

Assays:
[1] = tested on: HT-29 colon tumor xenograft; test: HT-29 tumor xenograft model, oral administration of Chk1 inhibitor; format: in vivo, nude mice
Experimental: The ability of Chk1 inhibitors to potentiate tumor killing by DNA damaging agents can be determined in vivo using the Calu-6 lung and HT-29 colon tumor xenograft efficacy models. Calu-6 lung cancer cells are cultured in growth media (MEM with Earle's Balanced Salt Solution with L-glutamine supplemented with 10% (v/v) heat inactivated FBS, 1×MEM non-essential amino acids, 1× sodium pyruvate) and HT-29 colon cancer cells (ATCC) are cultured in growth media, (McCoy's 5A medium supplemented with 10% FBS) and expanded.
Cells are harvested and washed twice with phosphate buffered saline and 5×10^6 cells (HT-29) or 1×10^6 a cells (Calu-6) in growth media (without serum) are mixed with equal volume of BD Matrigel™ matrix, then injected subcutaneously into the flank of nude mice (CD-1 nu/nu).
At about day 16 after implant (150-200 mm^3), gemcitabine is formulated fresh in saline daily and administered to animals by intraperitoneal route at 40 mg/kg dose. Twenty four hours later animals are administered Chk1 compound, in 0.2% Tween-80/0.5% methylcellulose by the oral route MD. After three days of rest, dosing was repeated for three additional cycles (Q5Dx4 with the compound of Example 3 offset+24 hours). Tumor growth inhibition (TGI) is calculated as described in the previous paragraph. Compounds within the scope of the invention are tested in this assay run substantially as above.

Chk1 = biological target: T1, Chk1 (Homo sapiens, UniProt O14757); test: Chk1 in vivo target inhibition assay (Calu-6 xenograft, phospho-Chk1 ser296); parameters: from tissue; host or cells: Calu-6 xenograft tumour from nude mice; species or system nude mice; conditions: Calu-6 tumors, oral, 6 h after gemcitabine 150 mg/kg ip, 2 h post dose
T1 sequence (O14757 1-476): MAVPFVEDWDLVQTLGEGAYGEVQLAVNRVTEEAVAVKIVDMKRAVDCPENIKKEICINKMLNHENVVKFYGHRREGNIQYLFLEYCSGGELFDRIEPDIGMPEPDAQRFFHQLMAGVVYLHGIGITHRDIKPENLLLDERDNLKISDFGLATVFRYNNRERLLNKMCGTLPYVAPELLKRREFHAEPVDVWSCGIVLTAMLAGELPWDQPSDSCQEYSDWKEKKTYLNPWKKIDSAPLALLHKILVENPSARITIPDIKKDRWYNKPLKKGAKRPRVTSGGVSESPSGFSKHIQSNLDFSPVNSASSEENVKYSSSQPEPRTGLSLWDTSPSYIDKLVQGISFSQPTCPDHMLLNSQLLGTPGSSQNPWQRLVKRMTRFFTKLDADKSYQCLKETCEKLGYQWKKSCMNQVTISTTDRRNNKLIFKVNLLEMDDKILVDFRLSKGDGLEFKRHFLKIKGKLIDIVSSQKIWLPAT
Experimental: Calu-6 cells are cultured in growth media (MEM with Earle's Balanced Salt Solution with L-glutamine supplemented with […], 1×MEM non-essential amino acids, 1× sodium pyruvate) and expanded. Cells are harvested and washed twice with phosphate buffered saline and 1×10^6 cells in growth media (without serum) are mixed with equal volume of BD Matrigel™ matrix, then injected subcutaneously into the flank of pre-irradiated (4.5 Gy) nude mice (athymic nude). At day 15 after implant (tumor size=150-200 mm^3), gemcitabine formulated fresh in saline daily is administered to animals by intraperitoneal route at 150 mg/kg dose. […] Antigen-antibody-reporter conjugates immobilized on the membrane are detected with the Super Signal Western Femto HRP-detection reagent.
Signals are detected and captured using the FUJI LAS-4000 imaging system. Phospho-Chk1(ser296) band intensities are calculated using “Total Lab” software (Nonlinear Dynamics). The percent inhibition of the gemcitabine induced Chk1 autophosphorylation is calculated by using the following formula: % inhibition=(sample-phospho-Chk1 band—intensity average gemcitabine (Max) positive control-phospho-Chk1 band intensity)/(average negative control (Min)-phosphor-Chk1 band intensity—average gemcitabine (Max) positive control-phospho-Chk1 band intensity)×100.

COc1nc(C)ccc1-c1cc(Nc2cncc(O[C@@H]3CCCNC3)n2)[nH]n1 [Example 3, (R)-[5-(2-Methoxy-6-methyl-pyridin-3-yl)-2H-pyrazol-3-yl]-[6-(piperidin-3-yloxy)-pyrazin-2-yl]-amine acetic acid salt]
% TGI at day 50 ([1]; HT29, Example 3 30 mpk oral alone): 39% | anti-tumor activity in combination with gemcitabine ([1]; HT-29 xenograft, oral, gemcitabine 40 mg/kg ip): excellent dose dependent anti-tumor activity | increase in tumor growth inhibition over gemcitabine alone ([1]; oral, stated for HT-29 and Calu-6 models together): ≤ 2,9 fold | Target Modulatory Effective Dose 50 (TMED50) for Chk1 autophosphorylation (Chk1): 1.3 mg/kg
